According to patent US20210371855A1, “METHODS OF INHIBITING PROLIFERATIVE CELLS” (IDEAYA BIOSCIENCES, INC., priority 2018, published 2021):

Tests used:
MMR-proficient cells = conditions: Yan et al. 2003; cited from earlier work
MLH1 reexpressing cells = experiment: 6-thioguanine sensitivity of MLH1 reexpressing cells; type: cell-based; conditions: FIG. 8C
MMR-deficient cells = conditions: Yan et al. 2003; cited from earlier work
[1] = test system: MSS cell lines, SW620 and SW948; experiment: Proliferation with WRN inhibitors, IncuCyte live-cell counting over 6 days; type: cell-based; conditions: SW620 and SW948, 6 days, FIG. 12
Experimental: (§1) Cell lines were infected with NucLight Red lentivirus (Essen Biosciences cat #4476) to express a red fluorescent protein in the nucleus thus enabling live-cell counting. Two cell lines with high microsatellite instability (MSI), HCT116 and RKO, and two microsatellite stable (MSS) cell lines, SW620 and SW948, were treated with WRN inhibitors, NSC 19630 (Calbiochem cat #681647) and NSC 617145 (Sigma cat #SML 1005) as follows. Cells were counted and seeded in triplicate into a 96-well plate (500 cells/well for MSI and 1000 cells/well for MSS). The next day, the cells were treated with compounds and monitored over 6 days in an IncuCyte ZOOM instrument. The cell count from the last time point was used to calculate IC50 values using GraphPad Prism 7.

[2] = test system: MSI cell lines, HCT116 and RKO; experiment: as above; type: cell-based; conditions: FIG. 12
Experimental: as §1

Structure (SMILES) | sensitivity of cells to 6-thioguanine (MMR-proficient cells) | sensitivity of cells to 6-TG (MLH1 reexpressing cells) | sensitivity of cells to 6-thioguanine (MMR-deficient cells) | sensitivity of MSS cell lines to the inhibitors [1] | effect on proliferation of MSI cell lines [2]
Nc1nc2nc[nH]c2c(=S)[nH]1 [6-TG, 6-thioguanine] | sensitive | more sensitive | resistant | – | –
CCC(=O)OCN1C(=O)C=CC1=O [NSC 19630] | – | – | – | differences in sensitivity | decreased proliferation
CC(C)(CN1C(=O)C(Cl)=C(Cl)C1=O)CN1C(=O)C(Cl)=C(Cl)C1=O [NSC 617145] | – | – | – | differences in sensitivity | decreased proliferation
